The values that follow come from patent publication US20140023611A1 (priority 2010, published 2014).

In the assay the target is T1, rat NaP2b (SLC34A2) (Rattus norvegicus, UniProt Q9JJ09).
T1 construct: host or cells: HEK293
T1 sequence (Q9JJ09 1-695): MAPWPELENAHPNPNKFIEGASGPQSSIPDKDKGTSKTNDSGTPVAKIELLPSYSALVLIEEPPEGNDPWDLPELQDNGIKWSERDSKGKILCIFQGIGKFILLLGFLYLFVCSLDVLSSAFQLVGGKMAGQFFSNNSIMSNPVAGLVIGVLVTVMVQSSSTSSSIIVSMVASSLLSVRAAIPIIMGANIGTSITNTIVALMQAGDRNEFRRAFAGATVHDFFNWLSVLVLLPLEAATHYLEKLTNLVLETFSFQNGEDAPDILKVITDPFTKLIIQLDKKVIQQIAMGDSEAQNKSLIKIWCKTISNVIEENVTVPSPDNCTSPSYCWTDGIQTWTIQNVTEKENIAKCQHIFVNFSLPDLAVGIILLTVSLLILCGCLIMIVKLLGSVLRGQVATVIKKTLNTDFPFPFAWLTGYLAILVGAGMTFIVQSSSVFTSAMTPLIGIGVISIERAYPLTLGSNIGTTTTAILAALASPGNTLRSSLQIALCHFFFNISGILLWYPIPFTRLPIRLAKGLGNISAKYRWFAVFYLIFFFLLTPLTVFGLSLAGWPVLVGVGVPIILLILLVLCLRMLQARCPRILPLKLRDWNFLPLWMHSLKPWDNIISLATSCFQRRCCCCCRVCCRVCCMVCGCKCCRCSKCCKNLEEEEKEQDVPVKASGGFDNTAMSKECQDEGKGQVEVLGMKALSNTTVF
Put plainly: Inhibition of NaP2b-mediated Pi (33P) uptake in transfected HEK293 cells, rat NaP2b. Type of assay: cell-based. The settings on record: 33P Pi uptake, 0.1 mM phosphate, value given as pIC50 range. The method, then:
HEK293 cells were obtained from the American Type Culture collection and propagated per their instructions. […] The sequence of the human protein was mutated to insert a threonine after residue 37, and to introduce a N39D mutation.
Cells were seeded into 96-well plates at 25,000 cells/well and cultured overnight. Lipofectamine 2000 (Invitrogen) was used to introduce the NaP2b cDNA, and the cells were allowed to approach confluence during a second overnight incubation. […] Each compound was tested at twelve concentrations ranging from 0.1 nM to 30 uM. Assays were run in duplicate.
Cells were lysed by addition of 20 μL 0.1% Tween 80 followed by 100 μL scintillation fluid, and counted using a TopCount (Perkin Elmer).
pIC50 (the negative log of the IC50) values of the test compounds were calculated using GraphPad Prism.
For the compound `O=C(NCc1cccc(C(F)(F)F)c1)c1ccnc(-c2cc(N3CCCCC3)ccc2NC(=O)c2cccc(C(=O)N(CCN3CCOCC3)C3CC3)c2)c1` [Example 4.11, N1-Cyclopropyl-N1-(2-morpholinoethyl)-N3-(4-(piperidin-1-yl)-2-(4-((3-(trifluoromethyl)benzyl)carbamoyl)pyridin-2-yl)phenyl)isophthalamide], the IC50 – broadly, the concentration that inhibits the measured activity by half – is 1 to 7.94 µM.

With `O=C(O)CCSCc1cccc(C(=O)Nc2ccc(N3CCCCC3)cc2-c2cc(C(=O)NCc3ccc(F)c(C(F)(F)F)c3)ccn2)c1` [Example 1.28], the IC50 was 1 to 7.94 µM.

The compound `O=C(O)CCOCCOCCOCCNC(=O)CCOCCOCCOCCOCCSCc1cccc(C(=O)Nc2ccc(N3CCCCC3)cc2-c2cc(C(=O)NCc3cccc(C(F)(F)F)c3)ccn2)c1` [Example 155, 17-oxo-1-(3-(4-(piperidin-1-yl)-2-(4-(3-(trifluoromethyl)benzylcarbamoyl)pyridin-2-yl)phenylcarbamoyl)phenyl)-5,8,11,14,21,24,27-heptaoxa-2-thia-18-azatriacontan-30-oic acid] had an IC50 of 10 to 31.6 µM.

For the compound `COCCNC(=O)CCSCc1cccc(C(=O)Nc2ccc(N3CCCCC3)cc2-c2cc(C(=O)NCc3cccc(C(F)(F)F)c3)ccn2)c1` [Example 4.17, 2-(2-(3-(((3-((2-Methoxyethyl)amino)-3-oxopropyl)thio)methyl)benzamido)-5-(piperidin-1-yl)phenyl)-N-(3-(trifluoromethyl)benzyl)isonicotinamide], the IC50 was 10 to 31.6 µM.

Compound `O=C(O)CCSCc1cccc(C(=O)Nc2ccc(N3CCCCC3)cc2-c2cc(C(=O)NCc3cccc(OC(F)(F)F)c3)ccn2)c1` [Example 1.45] had a concentration for half-maximal inhibition (IC50) of 1 to 7.94 µM.

On to `CN(CCO)CCN(C)C(=O)c1cccc(C(=O)Nc2ccc(N3CCCCC3)cc2-c2cc(C(=O)NCc3cccc(C(F)(F)F)c3)ccn2)c1` [Example 4.21, N1-(2-((2-Hydroxyethyl)(methyl)amino)ethyl)-N1-methyl-N3-(4-(piperidin-1-yl)-2-(4-((3-(trifluoromethyl)benzyl)carbamoyl)pyridin-2-yl)phenyl)isophthalamide], for which the IC50 was 1 to 7.94 µM.

The compound `Cc1cc(C(=O)Nc2ccc(N3CCCCC3)cc2-c2cc(C(=O)NCc3cccc(C(F)(F)F)c3)ccn2)cc(C(=O)N(C)CCN2CCOCC2)c1` [Example 11.2, N1,5-Dimethyl-N1-(2-morpholinoethyl)-N3-(4-(piperidin-1-yl)-2-(4-((3-(trifluoromethyl)benzyl)carbamoyl)pyridin-2-yl)phenyl)isophthalamide] had an IC50 of 1 to 7.94 µM.

`O=C(O)CCSCc1cccc(C(=O)Nc2ccc(N3CCCCC3)cc2-c2cc(C(=O)NC3CCc4ccccc43)ccn2)c1` (stereo not shown) [Example 1.34] gave an IC50 of 1 to 7.94 µM.

`O=C(O)CC1CCN(C(=O)c2cccc(C(=O)Nc3ccc(N4CCCCC4)cc3-c3cc(C(=O)NCc4cccc(C(F)(F)F)c4)ccn3)c2)CC1` [Example 4.31, 2-(1-(3-(4-(Piperidin-1-yl)-2-(4-(3-(trifluoromethyl)benzylcarbamoyl)pyridin-2-yl)phenylcarbamoyl)benzoyl)piperidin-4-yl)acetic acid] gave an IC50 of 10 to 31.6 µM.

In turn, `CN(CCN1CCOCC1)C(=O)c1cccc(C(=O)Nc2ccc(N3CCCCC3)cc2-c2cc(C(=O)NCc3ccccc3OC(F)(F)F)ccn2)c1` [Example 123, N1-(2-(4-((2-(trifluoromethoxy)benzyl)carbamoyl)pyridin-2-yl)-4-(piperidin-1-yl)phenyl)-N3-methyl-N3-(2-morpholinoethyl)isophthalamide] had a half-maximal inhibitory concentration (IC50) of 1 to 7.94 µM.

`CCN(CC)c1ccc(NC(=O)c2cccc(C(=O)N3CCC[C@H](C(=O)NCCOC)C3)c2)c(-c2cc(C(=O)NCc3cccc(C(F)(F)F)c3)ccn2)c1` [Example 189, (S)-2-(5-(diethylamino)-2-(3-(3-((2-methoxyethyl)carbamoyl)piperidine-1-carbonyl)benzamido)phenyl)-N-(3-(trifluoromethyl)benzyl)isonicotinamide]: the IC50 was 1 to 7.94 µM.

The compound `CCN(CC)CCN(C)C(=O)c1cccc(C(=O)Nc2ccc(N3CCCCC3)cc2-c2cc(C(=O)NCc3cccc(C(F)(F)F)c3)ccn2)c1` [Example 4.1, N1-(2-(Diethylamino)ethyl)-N1-methyl-N3-(4-(piperidin-1-yl)-2-(4-((3-(trifluoromethyl)benzyl)carbamoyl)pyridin-2-yl)phenyl)isophthalamide] showed a 50% inhibitory concentration (IC50) of 10 to 31.6 µM.

As to `O=C(NCc1cccc(C(F)(F)F)c1)c1ccnc(-c2cc(N3CCCCC3)ccc2NC(=O)c2cccc(CSc3ncc(C(=O)O)c(O)n3)c2)c1` [Example 8.14], the IC50 is 1 to 7.94 µM.

`CC(=O)N1CCCN(Cc2cccc(C(=O)Nc3ccc(N4CCCCC4)cc3-c3cc(C(=O)NCc4cccc(C(F)(F)F)c4)ccn3)n2)CC1` [Example 59, 6-((4-Acetyl-1,4-diazepan-1-yl)methyl)-N-(4-(piperidin-1-yl)-2-(4-((3-(trifluoromethyl)benzyl)carbamoyl)pyridin-2-yl)phenyl)picolinamide] had a 50% inhibitory concentration (IC50) of 1 to 7.94 µM.

As to `O=C(NCc1cccc(C(F)(F)F)c1)c1ccnc(-c2cc(N3CCCCC3)ccc2NC(=O)c2cccc(Cn3ccc4c(C(=O)NCCOCCOCCO)cccc43)c2)c1` [Example 180, N-(2-(2-(2-hydroxyethoxy)ethoxy)ethyl)-1-(3-(4-(piperidin-1-yl)-2-(4-(3-(trifluoromethyl)benzylcarbamoyl)pyridin-2-yl)phenylcarbamoyl)benzyl)-1H-indole-4-carboxamide], the IC50 is 1 to 7.94 µM.

`O=C(NCc1cccc(C(F)(F)F)c1)c1ccnc(-c2cc(N3CCCCC3)ccc2NC(=O)c2cccc(CSCCO)c2)c1` [Example 8.2] had an IC50 of 1 to 7.94 µM.

The compound `CN(Cc1nccn1C)C(=O)c1cccc(C(=O)Nc2ccc(N3CCCCC3)cc2-c2cc(C(=O)NCc3cccc(C(F)(F)F)c3)ccn2)c1` [Example 4.25] gave an IC50 of 1 to 7.94 µM.

On to `COCCNC(=O)[C@H]1CCCN(C(=O)c2cccc(C(=O)Nc3ccc(N4CCCCC4)cc3-c3cc(C(=O)NCc4cccc(C(F)(F)F)c4)ccn3)c2)C1` [Example 4.14, (S)-2-(2-(3-(3-((2-Methoxyethyl)carbamoyl)piperidine-1-carbonyl)benzamido)-5-(piperidin-1-yl)phenyl)-N-(3-(trifluoromethyl)benzyl)isonicotinamide], for which the IC50 was 1 to 7.94 µM.

Compound `O=C(O)CCSCc1cccc(C(=O)Nc2ccc(N3CCCCC3)cc2-c2cc(C(=O)NC3Cc4ccccc4C3)ccn2)c1` [Example 1.35] gave a half-maximal inhibitory concentration (IC50) of 1 to 7.94 µM.

`O=C(O)CCSCc1cccc(C(=O)Nc2ccc(N3CCCCC3)cc2-c2cc(Oc3cccc(C(F)(F)F)c3)ncn2)c1` [Example 3.9, 3-((3-((4-(Piperidin-1-yl)-2-(6-(3-(trifluoromethyl)phenoxy)pyrimidin-4-yl)phenyl)carbamoyl)benzyl)thio)propanoic acid] had an IC50 of 10 to 31.6 µM.

`CC(Nc1cc(-c2cc(N3CCCCC3)ccc2NC(=O)c2cccc(CSCCC(=O)O)c2)ncn1)c1cccc(C(F)(F)F)c1` (stereo not shown) [Example 76, 3-((3-((4-(Piperidin-1-yl)-2-(6-((1-(3-(trifluoromethyl)phenyl)ethyl)amino)pyrimidin-4-yl)phenyl)carbamoyl)benzyl)thio)propanoic acid]: the half-maximal inhibitory concentration (IC50) was 10 to 31.6 µM.

In turn, `CC(=O)N1CCN(CCN(C)C(=O)c2cccc(C(=O)Nc3ccc(N4CCCCC4)cc3-c3cc(C(=O)NCc4cccc(C(F)(F)F)c4)ccn3)c2)CC1` [Example 81, N1-(2-(4-Acetylpiperazin-1-yl)ethyl)-N1-methyl-N3-(4-(piperidin-1-yl)-2-(4-(3-(trifluoromethyl)benzylcarbamoyl)pyridin-2-yl)phenyl)isophthalamide] gave an IC50 of 1 to 7.94 µM.

`O=C(O)CCSCc1cccc(C(=O)Nc2ccc(N3CCCCC3)cc2-c2cc(NCCc3cccc(C(F)(F)F)c3)ncn2)c1` [Example 3.3, 3-((3-((4-(Piperidin-1-yl)-2-(6-((3-(trifluoromethyl)phenethyl)amino)pyrimidin-4-yl)phenyl)carbamoyl)benzyl)thio)propanoic acid] had an IC50 of 10 to 31.6 µM.

Compound `O=C(O)CCCSCc1cccc(C(=O)Nc2ccc(N3CCCCC3)cc2-c2cc(C(=O)NCc3cccc(C(F)(F)F)c3)ccn2)c1` [Example 8.5] showed an IC50 of 1 to 7.94 µM.

Take `O=C(O)CNC(=O)CCSCc1cccc(C(=O)Nc2ccc(N3CCCCC3)cc2-c2cc(C(=O)NCc3cccc(C(F)(F)F)c3)ccn2)c1` [Example 4.18, 2-(3-((3-((4-(Piperidin-1-yl)-2-(4-((3-(trifluoromethyl)benzyl)carbamoyl)pyridin-2-yl)phenyl)carbamoyl)benzyl)thio)propanamido)acetic acid]: the half-inhibitory concentration (IC50) is 10 to 31.6 µM.
